Experiments:
[1] = biological target: T1, LXRβ (Homo sapiens, UniProt P55055); test: nuclear receptor LXRβ activity; assay type: cell-based
T1 sequence (P55055 1-460): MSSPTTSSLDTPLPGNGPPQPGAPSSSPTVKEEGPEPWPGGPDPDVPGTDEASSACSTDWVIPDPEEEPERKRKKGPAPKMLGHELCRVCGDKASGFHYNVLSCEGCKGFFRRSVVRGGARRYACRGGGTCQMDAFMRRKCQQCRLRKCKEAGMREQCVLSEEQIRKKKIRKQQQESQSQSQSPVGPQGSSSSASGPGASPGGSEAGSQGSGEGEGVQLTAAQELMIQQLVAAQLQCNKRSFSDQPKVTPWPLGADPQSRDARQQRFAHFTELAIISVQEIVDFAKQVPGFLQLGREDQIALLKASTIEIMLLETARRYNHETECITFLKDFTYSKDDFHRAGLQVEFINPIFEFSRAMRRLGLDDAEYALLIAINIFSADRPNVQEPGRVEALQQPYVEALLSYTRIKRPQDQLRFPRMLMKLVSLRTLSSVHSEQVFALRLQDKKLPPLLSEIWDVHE

[2] = biological target: T2, PPARδ (UniProt I0FFS1); test: PPAR receptor transactivation assay, monkey PPARδ; assay type: cell-based
T2 construct: This is inferred from the cell pool name 'UAS-bla-Gal4' and from the general description in b82 and b85
T2 sequence (I0FFS1 1-441): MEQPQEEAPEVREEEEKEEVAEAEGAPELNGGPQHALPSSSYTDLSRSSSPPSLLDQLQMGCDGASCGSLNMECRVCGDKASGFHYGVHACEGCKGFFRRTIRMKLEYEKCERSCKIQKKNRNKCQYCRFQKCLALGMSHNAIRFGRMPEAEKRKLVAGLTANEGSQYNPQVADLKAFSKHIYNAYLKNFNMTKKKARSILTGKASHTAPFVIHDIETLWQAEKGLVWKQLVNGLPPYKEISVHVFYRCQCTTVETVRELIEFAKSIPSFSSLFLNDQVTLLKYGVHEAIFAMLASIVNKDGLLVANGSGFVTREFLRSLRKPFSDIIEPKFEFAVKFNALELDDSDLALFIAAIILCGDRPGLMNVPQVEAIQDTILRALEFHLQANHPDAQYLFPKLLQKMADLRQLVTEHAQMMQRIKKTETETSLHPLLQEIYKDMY

For `Cc1cc(OC/C=C(/c2ccc(F)cc2)c2ccc(C#CCN3CCOCC3)cc2)ccc1OCC(=O)O` [Compound 1, (E)-[4-[3-(4-Fluorophenyl)-3-[4-[3-(morpholin-4-yl)propynyl]phenyl]allyloxy]-2-methyl-phenoxy]acetic acid], the “activity on the nuclear receptor LXRβ” value [1] was “did not show any” and the EC50 [2] was 6.6 nM.

From patent US20220117972A1, “USE OF PPAR-DELTA AGONISTS IN THE TREATMENT OF MITOCHONDRIAL MYOPATHY” (Reneo Pharmaceuticals, Inc., priority 2019, published 2022)
